Laboratory results published in US20250332300A1 (priority 2024, published 2025).
Structures can show the parent of a compound that is named as a salt. Starred links: 1 amine or outer side, 2 acyl side, 3 side chain; linkers in the order of their positions; H or OH if unused. Positions of bridges follow the written chain, without caps; N, C: chain ends. Non-standard residues stand in square brackets, D forms with d. Residues, ends and D or L forms follow the SMILES beside them. Trp(5-OH) = N[C@@H](Cc1c[nH]c2ccc(O)cc12)C(=O)O; NMePhe(4-F) = CN[C@@H](Cc1ccc(F)cc1)C(=O)O; X1 = O=C([C@H](Cc1cnn2ccccc12)N[*:1])[*:2]; NMehPhe = CN[C@@H](CCc1ccccc1)C(=O)O; NMeE = CN[C@@H](CCC(=O)O)C(=O)O; Aad = N[C@@H](CCCC(=O)O)C(=O)O; Gly(cPr) = N[C@H](C(=O)O)C1CC1; NMeD = CN[C@@H](CC(=O)O)C(=O)O; Aoc(2) = CCCCCC[C@H](N)C(=O)O; NMeK = CN[C@@H](CCCCN)C(=O)O; NMeDap = CN[C@@H](CN)C(=O)O; 3Amb = NCc1cccc(C(=O)O)c1; NMeS = CN[C@@H](CO)C(=O)O; Dap = NC[C@H](N)C(=O)O

Tests used:
Format in all cases: binding
human HER2 (23-652) [1] = target: T1, human HER2 (23-652) (Homo sapiens, UniProt P04626); experiment: TR-FRET competition assay for peptide potency, human HER2; parameters: towards human HER2 (23-652) and mouse HER2 (23-653); made in house; host or cells: mammalian cells; settings: read-out: huHER2 TR-FRET IC50
mouse HER2 (23-653) [2] = target: T2, mouse HER2 (23-653) (Mus musculus, UniProt P70424); experiment: Surface plasmon resonance (SPR) for assessment of peptide affinity, mouse HER2; parameters: mouse HER2 (23-653) using a Cy5 labeled peptide as a probe; made in house; settings: SPR, mouse HER2 extracellular domain, 25° C., 1:1 binding model; for Kd: read-out: moHER2-SPR-ONC KD
Excerpt: Each protein was immobilized either onto a SA sensorchip (Cytiva, BR-1005-31) or CM5 sensorchip (Cytiva, BR-1005-30) to a density of 800-2000 RU.

human HER2 (23-652) [3] = target: T1, human HER2 (23-652); experiment: Surface plasmon resonance (SPR) for assessment of peptide affinity, human HER2; parameters: towards human HER2 (23-652) and mouse HER2 (23-653); made in house; settings: SPR, human HER2 extracellular domain, 25° C., 1:1 binding model; for Kd: read-out: huHER2-SPR-ONC KD
Outline: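 Binding kinetics fitted from sensorgrams with 280 s peptide association then 3000 s dissociation (30 uL/min), using HER2 (23-652) either directly immobilized (SA/CM5) or anti-Fc-captured; 3 M magnesium chloride used for regeneration.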

mouse HER2 (23-653) [4] = target: T2, mouse HER2 (23-653); experiment: TR-FRET competition assay for peptide potency, mouse HER2; parameters: mouse HER2 (23-653) using a Cy5 labeled peptide as a probe; made in house; host or cells: mammalian cells; settings: TR-FRET competition with Cy5 labeled peptide probe, 0.1 nM mouse HER2, 24 h incubation; read-out: moHER2 TR-FRET IC50

CCCCCC[C@@H]1NC(=O)[C@H](Cc2c[nH]c3ccc(O)cc23)NC(=O)[C@H](CCCCNC(C)=O)N(C)C(=O)[C@H](CCc2ccccc2)N(C)C(=O)[C@H](CO)NC(=O)[C@H](Cc2ccc(O)cc2)NC(=O)[C@@H](NC(C)=O)CCCC(=O)NC[C@@H](C(=O)N(C)[C@@H](Cc2ccc(F)cc2)C(N)=O)N(C)C(=O)[C@H](C2CC2)NC1=O [Example A18, (3S,6S,9S,12S,15S,18S,21S,24S,27S)-27-acetamido-15-(4-acetamidobutyl)-N-((S)-1-amino-3-(4-fluorophenyl)-1-oxopropan-2-yl)-6-cyclopropyl-9-hexyl-12-((5-hydroxy-1H-indol-3-yl)methyl)-24-(4-hydroxybenzyl)-21-(hydroxymethyl)-N,4,16,19-tetramethyl-5,8,11,14,17,20,23,26,31-nonaoxo-18-phenethyl-1,4,7,10,13,16,19,22,25-nonaazacyclohentriacontane-3-carboxamide] (Ac-[Aad]YS[NMehPhe][NMeK](Ac)[Trp(5-OH)][Aoc(2)][Gly(cPr)][NMeDap][NMePhe(4-F)]-NH2; lactam 1-9)
IC50 (human HER2 (23-652) [1]): > 1 µM
Kd (mouse HER2 (23-653) [2]): > 6 µM
Kd (human HER2 (23-652) [3]): > 6 µM
IC50 (mouse HER2 (23-653) [4]): > 1 µM

CC(=O)N[C@H]1CNC(=O)CC[C@@H](C(=O)N(C)[C@@H](Cc2ccc(F)cc2)C(N)=O)N(C)C(=O)[C@H](C2CC2)NC(=O)[C@H](Cc2c[nH]c3ccccc23)NC(=O)[C@H](Cc2c[nH]c3ccc(O)cc23)NC(=O)[C@H](CO)N(C)C(=O)[C@H](CCc2ccccc2)N(C)C(=O)[C@H](CO)NC(=O)[C@H](Cc2ccc(O)cc2)NC1=O [Example A19, (3S,6S,9S,12S,15S,18S,21S,24S,30S)-6-((1H-indol-3-yl)methyl)-24-acetamido-N-((S)-1-amino-3-(4-fluorophenyl)-1-oxopropan-2-yl)-3-cyclopropyl-9-((5-hydroxy-1H-indol-3-yl)methyl)-21-(4-hydroxybenzyl)-12,18-bis(hydroxymethyl)-N,1,13,16-tetramethyl-2,5,8,11,14,17,20,23,27-nonaoxo-15-phenethyl-1,4,7,10,13,16,19,22,26-nonaazacyclotriacontane-30-carboxamide] (Ac-[Dap]YS[NMehPhe][NMeS][Trp(5-OH)]W[Gly(cPr)][NMeE][NMePhe(4-F)]-NH2; lactam 1-9)
IC50 (human HER2 (23-652) [1]): > 1 µM
moHER2-SPR-ONC KD (mouse HER2 (23-653) [2]): no binding*
huHER2-SPR-ONC KD (human HER2 (23-652) [3]): no binding*
IC50 (mouse HER2 (23-653) [4]): > 1 µM

CC(=O)N[C@H]1CCC(=O)NC[C@@H](C(=O)N(C)[C@@H](Cc2ccc(F)cc2)C(N)=O)N(C)C(=O)[C@H](C2CC2)NC(=O)[C@H](Cc2cnn3ccccc23)NC(=O)[C@H](Cc2c[nH]c3ccc(O)cc23)NC(=O)[C@H](CO)N(C)C(=O)[C@H](CCc2ccccc2)N(C)C(=O)[C@H](CO)NC(=O)[C@H](Cc2ccc(O)cc2)NC1=O [Example A21, (3S,6S,9S,12S,15S,18S,21S,24S,27S)-27-acetamido-N-((S)-1-amino-3-(4-fluorophenyl)-1-oxopropan-2-yl)-6-cyclopropyl-12-((5-hydroxy-1H-indol-3-yl)methyl)-24-(4-hydroxybenzyl)-15,21-bis(hydroxymethyl)-N,4,16,19-tetramethyl-5,8,11,14,17,20,23,26,30-nonaoxo-18-phenethyl-9-(pyrazolo[1,5-a]pyridin-3-ylmethyl)-1,4,7,10,13,16,19,22,25-nonaazacyclotriacontane-3-carboxamide] (Ac-EYS[NMehPhe][NMeS][Trp(5-OH)][X1][Gly(cPr)][NMeDap][NMePhe(4-F)]-NH2; lactam 1-9)
IC50 (human HER2 (23-652) [1]): > 1 µM
Kd (mouse HER2 (23-653) [2]): > 6 µM
Kd (human HER2 (23-652) [3]): > 6 µM
IC50 (mouse HER2 (23-653) [4]): > 1 µM

CN1C(=O)[C@H](CO)NC(=O)[C@H](Cc2ccc(O)cc2)NC(=O)c2cccc(c2)CNC(=O)C[C@@H](C(=O)N(C)[C@@H](Cc2ccc(F)cc2)C(N)=O)N(C)C(=O)[C@H](C2CC2)NC(=O)[C@H](Cc2c[nH]c3ccccc23)NC(=O)[C@H](Cc2c[nH]c3ccc(O)cc23)NC(=O)[C@H](CO)N(C)C(=O)[C@@H]1CCc1ccccc1 [Example A24, (4S,7S,10S,13S,16S,19S,22S,25S)-19-((1H-indol-3-yl)methyl)-N-((S)-1-amino-3-(4-fluorophenyl)-1-oxopropan-2-yl)-22-cyclopropyl-16-((5-hydroxy-1H-indol-3-yl)methyl)-4-(4-hydroxybenzyl)-7,13-bis(hydroxymethyl)-N,9,12,24-tetramethyl-2,5,8,11,14,17,20,23,27-nonaoxo-10-phenethyl-3,6,9,12,15,18,21,24,28-nonaaza-1(1,3)-benzenacyclononacosaphane-25-carboxamide] ([3Amb]YS[NMehPhe][NMeS][Trp(5-OH)]W[Gly(cPr)][NMeD][NMePhe(4-F)]-NH2; lactam N-9)
IC50 (human HER2 (23-652) [1]): > 1 µM
Kd (mouse HER2 (23-653) [2]): 5.08 µM
Kd (human HER2 (23-652) [3]): 2.81 µM
IC50 (mouse HER2 (23-653) [4]): > 1 µM

CC(=O)N[C@H]1CCC(=O)NC[C@@H](C(=O)N(C)[C@@H](Cc2ccc(F)cc2)C(N)=O)N(C)C(=O)[C@H](C2CC2)NC(=O)[C@H](Cc2c[nH]c3ccccc23)NC(=O)[C@H](Cc2c[nH]c3ccc(O)cc23)NC(=O)[C@H](CO)N(C)C(=O)[C@H](CCc2ccccc2)N(C)C(=O)[C@H](CCCC(=O)O)NC(=O)[C@H](Cc2ccc(O)cc2)NC1=O [Example A27, 4-((2S,5S,8S,11S,14S,17S,20S,23S,29S)-17-((1H-indol-3-yl)methyl)-29-acetamido-23-(((S)-1-amino-3-(4-fluorophenyl)-1-oxopropan-2-yl)(methyl)carbamoyl)-20-cyclopropyl-14-((5-hydroxy-1H-indol-3-yl)methyl)-2-(4-hydroxybenzyl)-11-(hydroxymethyl)-7,10,22-trimethyl-3,6,9,12,15,18,21,26,30-nonaoxo-8-phenethyl-1,4,7,10,13,16,19,22,25-nonaazacyclotriacontan-5-yl)butanoic acid] (Ac-EY[Aad][NMehPhe][NMeS][Trp(5-OH)]W[Gly(cPr)][NMeDap][NMePhe(4-F)]-NH2; lactam 1-9)
IC50 (human HER2 (23-652) [1]): 0.391 µM
Kd (mouse HER2 (23-653) [2]): 0.21 µM
Kd (human HER2 (23-652) [3]): 0.248 µM
IC50 (mouse HER2 (23-653) [4]): 0.627 µM

CC(=O)N[C@H]1CC(=O)NC[C@@H](C(=O)N(C)[C@@H](Cc2ccc(F)cc2)C(N)=O)N(C)C(=O)[C@H](C2CC2)NC(=O)[C@H](Cc2c[nH]c3ccccc23)NC(=O)[C@H](Cc2c[nH]c3ccc(O)cc23)NC(=O)[C@H](CO)N(C)C(=O)[C@H](CCc2ccccc2)N(C)C(=O)[C@H](CO)NC(=O)[C@H](Cc2ccc(O)cc2)NC1=O [Example A28, (3S,6S,9S,12S,15S,18S,21S,24S,27S)-9-((1H-indol-3-yl)methyl)-27-acetamido-N-((S)-1-amino-3-(4-fluorophenyl)-1-oxopropan-2-yl)-6-cyclopropyl-12-((5-hydroxy-1H-indol-3-yl)methyl)-24-(4-hydroxybenzyl)-15,21-bis(hydroxymethyl)-N,4,16,19-tetramethyl-5,8,11,14,17,20,23,26,29-nonaoxo-18-phenethyl-1,4,7,10,13,16,19,22,25-nonaazacyclononacosane-3-carboxamide] (Ac-DYS[NMehPhe][NMeS][Trp(5-OH)]W[Gly(cPr)][NMeDap][NMePhe(4-F)]-NH2; lactam 1-9)
IC50 (human HER2 (23-652) [1]): 0.223 µM
Kd (mouse HER2 (23-653) [2]): 0.421 µM
Kd (human HER2 (23-652) [3]): 0.309 µM
IC50 (mouse HER2 (23-653) [4]): 0.413 µM

CN1C(=O)[C@H](CO)NC(=O)[C@H](Cc2ccc(O)cc2)NC(=O)[C@@H](N)Cc2cccc(c2)CC(=O)NC[C@@H](C(=O)N(C)[C@@H](Cc2ccc(F)cc2)C(N)=O)N(C)C(=O)[C@H](C2CC2)NC(=O)[C@H](Cc2c[nH]c3ccccc23)NC(=O)[C@H](Cc2c[nH]c3ccc(O)cc23)NC(=O)[C@H](CO)N(C)C(=O)[C@@H]1CCc1ccccc1 [Example A31, (6S,9S,12S,15S,18S,21S,24S,27S,30S)-12-((1H-indol-3-yl)methyl)-30-amino-N—((S)-1-amino-3-(4-fluorophenyl)-1-oxopropan-2-yl)-9-cyclopropyl-15-((5-hydroxy-1H-indol-3-yl)methyl)-27-(4-hydroxybenzyl)-18,24-bis(hydroxymethyl)-N,7,19,22-tetramethyl-3,8,11,14,17,20,23,26,29-nonaoxo-21-phenethyl-4,7,10,13,16,19,22,25,28-nonaaza-1 (1,3)-benzenacyclohentriacontaphane-6-carboxamide TFA salt]
IC50 (human HER2 (23-652) [1]): 0.844 µM
Kd (mouse HER2 (23-653) [2]): 0.755 µM
Kd (human HER2 (23-652) [3]): 0.485 µM
IC50 (mouse HER2 (23-653) [4]): > 1 µM
